Literature values, collected in US5977138A, “Ether muscarinic antagonists” (Schering Corporation, priority 1997, dated 1999).

System: m2 muscarinic receptor
Conditions: Baumgold et al., Eur. J. of Pharmacol., 251 (1994) 315-317

C[C@H]1CC[C@@H]2N(C1)C[C@H]1[C@@H]3C[C@H]4[C@@H](CC(=O)[C@H]5C[C@@H](Cl)CC[C@@]54C)[C@@H]3CC[C@H]1[C@]2(C)O [3-α-chloroimperialine]
m2 selective muscarinic antagonism: highly selective m2 muscarinic antagonist
